Patent US8084203B2, “Methods for the determination of telomere length in a semi-automatic manner of every single cell in a immobilized cell population” (Fundacion Centro Nacional de Investigaciones Oncologicas …, priority 2008, dated 2011)

Test system: epidermal stem cell
Description: Unless otherwise specified, all mice used in this study were males of approximately 2 months of age and from a C57BL6 genetic background. Mice of a FVB genetic background (2 months-old) were also used in Supplementary FIG. S1. Generation and characteristics of the Terc−/− and the K15-EGFP mice were previously described (Morris et al., 2004; Blasco et al., 1997).
To induce epidermal stem cell “mobilization” (activation, migration and proliferation), tail skin in the telogen (resting) phase of the hair cycle was topically treated every 48 h with TPA (20 nmol in acetone) for a total of four doses. Control mice of each genotype were treated with acetone alone. 24-hours after the last TPA treatment, mice were sacrificed and the tail skin analysed.
For telomere length analyses, samples from mouse tail and back skin, small intestine, cornea, testis and brain were harvested and fixed o/n in neutralbuffered formalin at 4° C., dehydrated through graded alcohols and xylene, and embedded in paraffin. Prior to embedding, dissected skin was cut parallel to the spine in order to obtain longitudinal hair follicle sections. The intestinal tract was flushed with PBS and rolled up in a compact circle using longitudinally oriented jejunal sections for analysis. For cornea and testis analyses, whole eyes and testis were cut in half prior to dehydration. Finally, brain was coronal-dissected to harvest the rostral hippocampus. In all cases, […] sections were used for QFISH and immunostaining analyses.
For Q-FISH, paraffin-embedded tissue sections were hybridized with a PNA-tel Cy3-labelled probe and telomere length was determined as described (González-Suárez et al., 2000; Muñoz et al., 2005; Zijlmans et al., 1997). Slides were deparaffinized in three xylene washes (3 m each), then treated for 3 m with a 100, 95 and 70% ethanol series, followed by telomere Q-FISH protocol performed as described (Samper et al., 2000). DAPI, Cy3 signals were acquired simultaneously into separate channels using a confocal ultraspectral microscope (Leica TCS-SP2-A-OBS-UV) using a PL APO 20×/0.70 PH2 as lens with Leica LCS software and maximum projections from image stacks (10 sections at steps 1.0 μm) were generated for image quantification. The DPSS-561 laser (Cy3 laser) was hold at a constant intensity to capture all the mouse tissues images.
High throughput quantitative image analysis was performed on confocal images using the Metamorph platform (version 6.3r6; Molecular Devices, Union City, Calif.). The DAPI image was used to define the nuclear area and the Cy3 image to quantify of telomere fluorescence. In all cases, background noise was subtracted from each image prior to making […] measurements. The DAPI images were signal-intensity thresholded, segmented and converted to 1-bit binary image. The binary DAPI mask was applied to the matching Cy3 to obtain a combined image with telomere fluorescence information for each
nucleus. Cy3 fluorescence intensity (telomere fluorescence) was measured as “average gray values” (total gray value/nuclei area) units (arbitrary units of fluorescence). These “average telomere fluorescence” values always represent the average Cy3 pixel intensity for the total nuclear area, and not the average value of individual telomere spot intensities, therefore ruling out that differences in nuclear size may influence telomere length measurements. A code of four colours was used to classify the nuclei according to their average telomere fluorescence. Telomere fluorescence ranges were initially set up to allocate in each range roughly ¼ of the total cells of a given tissue in wild type mice of 2 months of age. […] Telomere fluorescence ranges of a given tissue obtained in this manner were then maintained constant between genotypes, treatment and ages to facilitate comparisons.

[1] = wild-type mice, TPA-treated vs untreated, FIG. 1d, significant
[2] = wild-type mice, upon TPA treatment, FIG. 6

CCCCCCCCCCCCCC(=O)O[C@@H]1[C@@H](C)[C@@]2(O)[C@@H](C=C(CO)C[C@]3(O)C(=O)C(C)=C[C@@H]23)[C@H]2C(C)(C)[C@]12OC(C)=O [TPA]
percentage of cells with the longest telomeres at the TA compartments and the interfollicular epidermis (telomerase-deficient G1 Terc-/- mice, TPA-treated skin, FIG. 1c,d): did not show increased percentage | percentage of cells with the longest telomeres at the hair bulge (telomerase-deficient G1 Terc-/- mice, TPA-treated vs untreated skin, FIG. 1c): reduction | total number of epidermal cells showing the longest telomeres (telomerase-deficient G1 Terc-/- mice, TPA-treated vs untreated skin, P<0.01, FIG. 1e): decreased | frequency of long telomeres in all hair follicle compartments (telomere length histograms) (telomerase-deficient G1 Terc-/- mice, TPA-treated, FIG. 6): decreased frequency of long telomeres | total number of epidermal cells showing 1800-3000 a.u. of telomere fluorescence (wild-type mice, TPA-treated vs untreated skin, P<0.05, FIG. 1e): significantly increased | cells with the longest telomeres in the TA compartments (hair bulb and infundibulum) (wild-type mice, TPA-treated vs untreated tail skin): accumulation | percentage of the cells with the longest telomeres at the hair bulge (wild-type mice, TPA-treated vs untreated tail skin, longest telomeres = 1800-3000 a.u. telomere fluorescence): decreased | absolute number of cells containing the longest telomeres at the hair bulge [1]: decreased at the hair bulge | absolute number of cells containing the longest telomeres in the other epidermal compartments [1]: concomitantly increased | frequency of long telomeres in hair bulge cells (telomere length histograms) [2]: decreased frequency of long telomeres | telomere length in cells located at the TA compartment and the interfollicular epidermis (telomere length histograms) [2]: increased telomere length
